Assay [1] has as its target T1, PKR WT (Homo sapiens, UniProt P30613). The experiment in a line: PKR WT cell based AC50 assay. As to conditions: wild type PKR.
Assay [2] addresses T1, PKR WT. The assay is described as follows: PKR WT enzymatic AC50 assay. In kind it is biochemical. As to conditions: wild type PKR. The essentials:
(§1)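 LDH-coupled NADH depletion read as A340 change at room temperature after ADP (0.22-1.65 mM) start. Compounds, tested from 100 μM final in 3-fold steps over 11 points with 1% DMSO, sat 60 min with enzyme (80-400 ng/well), PEP 0.1-0.5 mM and NADH 180 uM in Tris pH 7.5/KCl/MgCl2/DTT/BSA buffer.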

The next assay has as its target PKR R532W (Homo sapiens, UniProt P30613, R532W). The assay is described as follows: PKR Mutant Assay, AC50 against PKR R532W. It is filed as biochemical. As to conditions: mutant PKR R532W enzyme. The essentials:
as §1

In a further assay the target is PKR R510Q (Homo sapiens, UniProt P30613, R510Q). The experiment in a line: PKR Mutant Assay, AC50 against PKR R510Q. In kind it is biochemical. As to conditions: mutant PKR R510Q enzyme. In a few lines:
as §1

Bounds are passed on as bounds.

T1 sequence (P30613 whole entry): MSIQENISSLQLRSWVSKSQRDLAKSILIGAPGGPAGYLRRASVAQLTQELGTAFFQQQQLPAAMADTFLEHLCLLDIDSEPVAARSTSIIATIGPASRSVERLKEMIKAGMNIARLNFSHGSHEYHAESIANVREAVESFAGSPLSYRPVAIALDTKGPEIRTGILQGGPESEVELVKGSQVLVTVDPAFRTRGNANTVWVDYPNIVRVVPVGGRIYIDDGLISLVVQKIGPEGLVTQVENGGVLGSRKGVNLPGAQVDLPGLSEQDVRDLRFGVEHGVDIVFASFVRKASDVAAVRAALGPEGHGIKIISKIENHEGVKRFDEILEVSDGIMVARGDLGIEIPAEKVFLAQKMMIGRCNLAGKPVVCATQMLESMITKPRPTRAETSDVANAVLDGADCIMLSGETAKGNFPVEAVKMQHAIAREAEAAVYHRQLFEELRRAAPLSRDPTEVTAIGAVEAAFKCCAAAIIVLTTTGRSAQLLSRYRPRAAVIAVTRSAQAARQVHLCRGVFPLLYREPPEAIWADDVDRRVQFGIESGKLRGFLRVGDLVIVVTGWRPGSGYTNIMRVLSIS
Sequence of PKR R510Q (P30613 whole entry R510Q): as the sequence (P30613 whole entry) above, with R510Q counted along it
Sequence of PKR R532W (P30613 whole entry R532W): as the sequence (P30613 whole entry) above, with R532W counted along it

One may read the AC50 as the midpoint of the concentration-response curve, whichever way the signal moves. Higher therefore signals weaker potency. As for `CC(C)(C)CC1(O)CCN(C(=O)c2ccc(NS(=O)(=O)c3cccc4scnc34)cc2)CC1` [Compound 134, N-(4-(4-hydroxy-4-neopentylpiperidine-1-carbonyl)phenyl)benzo[d]thiazole-4-sulfonamide], the AC50 on PKR WT [1], at PKR WT [2], on PKR R532W and at PKR R510Q was less than 100 nM in each case.
With `COc1cccc(CC2(O)CCN(C(=O)c3ccc(NS(=O)(=O)c4cccc5cccnc45)cc3)CC2)c1` [Compound 135, N-(4-(4-hydroxy-4-(3-methoxybenzyl)piperidine-1-carbonyl)phenyl)quinoline-8-sulfonamide], the AC50 at PKR WT [1] was less than 100 nM; at PKR WT [2], less than 100 nM; at PKR R532W it was less than 100 nM; on PKR R510Q, 101 to 1000 nM.
`O=C(c1ccc(NS(=O)(=O)c2cccc3cccnc23)cc1OC(F)(F)F)N1CCC(O)(c2ccccc2Cl)CC1` [Compound 136, N-(4-(4-(2-chlorophenyl)-4-hydroxypiperidine-1-carbonyl)-3-(trifluoromethoxy)phenyl)quinoline-8-sulfonamide]: the AC50 on PKR WT [1], on PKR WT [2], on PKR R532W and on PKR R510Q was less than 100 nM throughout.
Turning to `CC(C)CC1(C=O)CCN(C(=O)c2ccc(NS(=O)(=O)c3cccc4cccnc34)cc2)CC1` [Compound 137, N-(4-(4-formyl-4-isobutylpiperidine-1-carbonyl)phenyl)quinoline-8-sulfonamide], the AC50 on PKR WT [1], on PKR WT [2], on PKR R532W and on PKR R510Q was less than 100 nM in each case.
Take `Cc1cc(F)ccc1C1(O)CCN(C(=O)c2ccc(NS(=O)(=O)c3cccc4cccnc34)cc2)CC1` [Compound 138, N-(4-(4-(4-fluoro-2-methylphenyl)-4-hydroxypiperidine-1-carbonyl)phenyl)quinoline-8-sulfonamide]: the AC50 at PKR WT [1], on PKR WT [2], at PKR R532W and at PKR R510Q was less than 100 nM in each case.
As for `CC(C)CC1(O)CCN(C(=O)c2ccc(NS(=O)(=O)c3cccc4cccnc34)cc2)CC1` [Compound 140, N-(4-(4-hydroxy-4-isobutylpiperidine-1-carbonyl)phenyl)quinoline-8-sulfonamide], the AC50 on PKR WT [1], on PKR WT [2], on PKR R532W and at PKR R510Q was less than 100 nM in each case.
As to `Cc1cc(NS(=O)(=O)c2cccc3cccnc23)ccc1C(=O)N1CCC(O)(c2ccccc2Cl)CC1` [Compound 141, N-(4-(4-(2-chlorophenyl)-4-hydroxypiperidine-1-carbonyl)-3-methylphenyl)quinoline-8-sulfonamide], the AC50 on PKR WT [1] is less than 100 nM; at PKR WT [2] it was less than 100 nM; on PKR R532W it was less than 100 nM; at PKR R510Q it was 101 to 1000 nM.
`O=C(c1ccc(NS(=O)(=O)c2cccc3cccnc23)cc1)N1CCC(O)(c2cccc(F)c2)CC1` [Compound 142, N-(4-(4-(3-fluorophenyl)-4-hydroxypiperidine-1-carbonyl)phenyl)quinoline-8-sulfonamide]: the AC50 on PKR WT [1] was less than 100 nM; at PKR WT [2] it was less than 100 nM; at PKR R532W, less than 100 nM; at PKR R510Q it was 101 to 1000 nM.
With `O=C(c1ccc(NS(=O)(=O)c2cccc3cccnc23)c(F)c1)N1CCC(O)(c2ccccc2Cl)CC1` [Compound 143, N-(4-(4-(2-chlorophenyl)-4-hydroxypiperidine-1-carbonyl)-2-fluorophenyl)quinoline-8-sulfonamide], the AC50 on PKR WT [1], on PKR WT [2], at PKR R532W and at PKR R510Q was less than 100 nM in each case.
For `O=C(c1ccc(NS(=O)(=O)c2cccc3cccnc23)cc1)N1CCC(O)(CC2CC2)CC1` [Compound 144, N-(4-(4-(cyclopropylmethyl)-4-hydroxypiperidine-1-carbonyl)phenyl)quinoline-8-sulfonamide], the AC50 at PKR WT [1], on PKR WT [2], on PKR R532W and on PKR R510Q was less than 100 nM in each case.
For the compound `CC(C)CC1(O)CCN(C(=O)c2ccc(NS(=O)(=O)c3cc(F)cc4sc(N)nc34)cc2)CC1` [Compound 145, 2-amino-6-fluoro-N-(4-(4-hydroxy-4-isobutylpiperidine-1-carbonyl)phenyl)benzo[d]thiazole-4-sulfonamide], the AC50 at PKR WT [1], at PKR WT [2], on PKR R532W and at PKR R510Q was less than 100 nM in each case.
In the case of `O=C(c1ccc(NS(=O)(=O)c2cccc3cccnc23)cc1)N1CCC(O)(Cc2cccc(F)n2)CC1` [Compound 146, N-(4-(4-((6-fluoropyridin-2-yl)methyl)-4-hydroxypiperidine-1-carbonyl)phenyl)quinoline-8-sulfonamide], the AC50 was less than 100 nM at PKR WT [1], less than 100 nM at PKR WT [2], less than 100 nM on PKR R532W and 101 to 1000 nM at PKR R510Q.
Take `Cc1ncccc1C1(O)CCN(C(=O)c2ccc(NS(=O)(=O)c3cccc4cccnc34)cc2)CC1` [Compound 147, N-(4-(4-hydroxy-4-(2-methylpyridin-3-yl)piperidine-1-carbonyl)phenyl)quinoline-8-sulfonamide]: the AC50 at PKR WT [1] is less than 100 nM; on PKR WT [2] it was less than 100 nM; at PKR R532W it was less than 100 nM; on PKR R510Q, 101 to 1000 nM.
Consider `O=C(c1ccc(NS(=O)(=O)c2cccc3cccnc23)cc1)N1CCC(O)(c2ncccc2F)CC1` [Compound 148, N-(4-(4-(3-fluoropyridin-2-yl)-4-hydroxypiperidine-1-carbonyl)phenyl)quinoline-8-sulfonamide], for which the half-maximal activity concentration (AC50) is 101 to 1000 nM at PKR WT [1], less than 100 nM at PKR WT [2], less than 100 nM at PKR R532W and 101 to 1000 nM on PKR R510Q.
Turning to `O=C(c1ccc(NS(=O)(=O)c2cccc3cccnc23)cc1)N1CCC(O)(c2ccccc2OC(F)(F)F)CC1` [Compound 150, N-(4-(4-hydroxy-4-(2-(trifluoromethoxy)phenyl)piperidine-1-carbonyl)phenyl)quinoline-8-sulfonamide], the AC50 is 101 to 1000 nM at PKR WT [1], less than 100 nM on PKR WT [2], less than 100 nM on PKR R532W and less than 100 nM at PKR R510Q.
`O=C(c1ccc(NS(=O)(=O)c2cccc3cccnc23)cc1OC(F)F)N1CCC(O)(c2ccccc2Cl)CC1` [Compound 151, N-(4-(4-(2-chlorophenyl)-4-hydroxypiperidine-1-carbonyl)-3-(difluoromethoxy)phenyl)quinoline-8-sulfonamide]: the AC50 at PKR WT [1], on PKR WT [2], at PKR R532W and on PKR R510Q was less than 100 nM throughout.
For the compound `O=C(c1ccc(NS(=O)(=O)c2cccc3cccnc23)cc1)N1CCC(O)(Cc2cccc(C(F)(F)F)c2)CC1` [Compound 152, N-(4-(4-hydroxy-4-(3-(trifluoromethyl)benzyl)piperidine-1-carbonyl)phenyl)quinoline-8-sulfonamide], the AC50 on PKR WT [1] is 101 to 1000 nM; at PKR WT [2], less than 100 nM; on PKR R532W it was less than 100 nM; at PKR R510Q it was 101 to 1000 nM.
Take `Cc1cccnc1C1(O)CCN(C(=O)c2ccc(NS(=O)(=O)c3cccc4cccnc34)cc2)CC1` [Compound 153, N-(4-(4-hydroxy-4-(3-methylpyridin-2-yl)piperidine-1-carbonyl)phenyl)quinoline-8-sulfonamide]: the AC50 on PKR WT [1] was less than 100 nM; on PKR WT [2], less than 100 nM; on PKR R532W, less than 100 nM; at PKR R510Q, 101 to 1000 nM.
Consider `Nc1nc2c(S(=O)(=O)Nc3ccc(C(=O)N4CCC(O)(c5ccccc5Cl)CC4)cc3)cc(F)cc2s1` [Compound 154, 2-amino-N-(4-(4-(2-chlorophenyl)-4-hydroxypiperidine-1-carbonyl)phenyl)-6-fluorobenzo[d]thiazole-4-sulfonamide], for which the AC50 on PKR WT [1], at PKR WT [2], on PKR R532W and at PKR R510Q was less than 100 nM each time.
In the case of `O=C(c1ccc(NS(=O)(=O)c2cccc3scnc23)cc1)N1CCC(O)(c2ccccc2Cl)CC1` [Compound 155, N-(4-(4-(2-chlorophenyl)-4-hydroxypiperidine-1-carbonyl)phenyl)benzo[d]thiazole-4-sulfonamide], the AC50 on PKR WT [1] was less than 100 nM; on PKR WT [2], less than 100 nM; at PKR R532W, less than 100 nM; at PKR R510Q, 101 to 1000 nM.
As to `O=C(c1ccc(NS(=O)(=O)c2cccc3cccnc23)cc1)N1CCC(O)(c2ccccc2)CC1` [Compound 156, N-(4-(4-hydroxy-4-phenylpiperidine-1-carbonyl)phenyl)quinoline-8-sulfonamide], the AC50 on PKR WT [1] is less than 100 nM; on PKR WT [2], less than 100 nM; on PKR R532W, less than 100 nM; on PKR R510Q it was 101 to 1000 nM.
As to `O=C(c1ccc(NS(=O)(=O)c2cccc3cccnc23)cc1Cl)N1CCC(O)(c2ccccc2Cl)CC1` [Compound 157, N-(3-chloro-4-(4-(2-chlorophenyl)-4-hydroxypiperidine-1-carbonyl)phenyl)quinoline-8-sulfonamide], the AC50 at PKR WT [1] is less than 100 nM; on PKR WT [2], less than 100 nM; on PKR R532W it was less than 100 nM; at PKR R510Q it was 101 to 1000 nM.
For `O=C(c1ccc(NS(=O)(=O)c2cccc3cccnc23)cc1)N1CCC(O)(c2cccnc2C(F)(F)F)CC1` [Compound 159, N-(4-(4-hydroxy-4-(2-(trifluoromethyl)pyridin-3-yl)piperidine-1-carbonyl)phenyl)quinoline-8-sulfonamide], the AC50 was less than 100 nM on PKR WT [1], less than 100 nM at PKR WT [2], less than 100 nM at PKR R532W and 101 to 1000 nM on PKR R510Q.

For the origin of these results see US9108921B2, “Therapeutic compounds and compositions” (AGIOS PHARMACEUTICALS, INC, priority 2014, dated 2015).
